The record followed here is patent US12421269B2, “SGLT2/DPP4 inhibitor and application thereof” (CGeneTech (Suzhou, China) CO., Ltd., priority 2019, dated 2025).

SMILES strings stand for the structures.

Data set [1] concerns the target recombinant human dipeptidyl peptidase 4 (rhDPP4) (Homo sapiens, UniProt P27487). The data set can be described thus: rhDPP4 inhibitor screening experiment. In kind it is biochemical. Conditions: Gly-Pro-aminofluorescein substrate, 1 hour at room temperature. An excerpt:
To evaluate the inhibitory activity of compounds against recombinant human dipeptidyl peptidase 4 (rhDPP4) by measuring the half-inhibitory concentration (IC50) values of the compounds. In the experiment, rhDPP4 was used to catalyze the generation of […] from substrate, the substrate was a luminescent precursor […], and the substrate and luciferase were reacted to generate a light signal, the intensity of the light signal was proportional to the enzyme activity.
• 1) The gradient diluted compounds (4-fold fold-dilution, 10 assay concentrations) were transferred 250 nL into a 384-well plate (PerkingElmer-6007299) using a non-contact nano-acoustic pipetting system (ECHO), and dimethyl sulfoxide (DMSO) concentration was 0.5% in the final reaction system. Blank control wells (containing DMSO, substrate and 10 mM Tris-HCl) and positive control wells (containing DMSO, substrate and rhDPP4) were set up. • 2) The pre-dispensed frozen buffer containing luciferase was removed and restored to room temperature, and then the substrate was added to configure a working solution with a substrate concentration of 20 μM. RhDPP4 was prepared as a working solution of 0.2 ng/mL using 10 mM Tris-HCl (pH 8.0) aqueous solution. • 3) 25 μL of working solution containing 20 μM substrate and 25 μL of working solution containing 0.2 ng/mL rhDPP4 were added to a 384-well plate with the addition of the compound, then the mixture was centrifuged for 30 s at 1000 rpm, the plate was sealed with aluminum foil sealing film and incubated for 1 hour at room temperature. • 4) The intensity of the light signal was detected by EnVision, a multifunctional microplate reader. The raw data were used to calculate the inhibition of rhDPP4 activity by the compound. % of inhibition activity=100−(compound well signal value−blank control well signal value)/(positive control well signal value−blank control well signal value)*100. • The percent of inhibition was imported into GraphPad Prism software for data processing to derive the corresponding dose-effect curves and to derive the IC50 values of the tested compounds.

The target of a further data set is T1, Human-SGLT2 (Homo sapiens, UniProt P31639).
T1 sequence (P31639 1-672): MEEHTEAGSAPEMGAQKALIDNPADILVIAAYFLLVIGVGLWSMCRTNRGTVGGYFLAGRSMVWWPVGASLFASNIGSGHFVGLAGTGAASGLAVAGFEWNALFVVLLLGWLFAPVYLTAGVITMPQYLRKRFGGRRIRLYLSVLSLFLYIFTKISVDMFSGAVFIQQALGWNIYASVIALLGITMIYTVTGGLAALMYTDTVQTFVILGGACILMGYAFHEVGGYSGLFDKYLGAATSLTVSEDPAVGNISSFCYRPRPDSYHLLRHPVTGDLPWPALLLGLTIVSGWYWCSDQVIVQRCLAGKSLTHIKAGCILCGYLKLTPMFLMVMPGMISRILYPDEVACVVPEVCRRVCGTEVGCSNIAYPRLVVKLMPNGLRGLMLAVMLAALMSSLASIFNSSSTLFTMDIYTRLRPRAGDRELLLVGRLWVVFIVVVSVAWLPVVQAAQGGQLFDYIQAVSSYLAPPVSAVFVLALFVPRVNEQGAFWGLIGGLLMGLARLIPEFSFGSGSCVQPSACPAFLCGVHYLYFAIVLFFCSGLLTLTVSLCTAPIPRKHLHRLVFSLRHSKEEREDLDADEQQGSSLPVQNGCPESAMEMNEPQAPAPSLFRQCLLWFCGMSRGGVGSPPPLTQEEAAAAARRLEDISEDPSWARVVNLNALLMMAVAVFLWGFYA
Briefly: SGLT2 glucose transport assay ([14C]-labeled glucose uptake). In kind it is cell-based. Conditions: cells stably expressing Human-SGLT2, 37° C., 2 hours. As for the experimental part: To test the effect of compounds on the glucose transport activity of SGLT2 transporters by measuring the amount of [^14C]-labeled glucose entering highly expressed Human-SGLT2 cells.
The cells stably expressing Human-SGLT2 used for the experiments were constructed by WuXi AppTec Shanghai. SGLT2 cells were plated in 96-well cell culture plates (Greiner) and cultured overnight at 5% CO2, 37° C.
Experimental buffer: 10 mM 4-hydroxyethylpiperazine ethanesulfonic acid (HEPES), 1.2 mM magnesium chloride (MgCl2), 4.7 mM potassium chloride (KCl), 2.2 mM calcium chloride (CaCl2) and 120 mM sodium chloride (NaCl).
Termination buffer: 10 mM 4-hydroxyethylpiperazine ethanesulfonic acid (HEPES), 1.2 mM magnesium chloride (MgCl2), 4.7 mM potassium chloride (KCl), 2.2 mM calcium chloride (CaCl2), 120 mM sodium chloride (NaCl) and 1 μM LX4211.
The compounds were diluted with 100% dimethyl sulfoxide (DMSO) at a starting concentration of 10 μM, 8 points of 5-fold serial gradient dilution was made.
6 μM [^14C]-labeled methyl α-D-glucopyranoside was prepared with experimental buffer.
Cells were treated with 49 μL of experimental buffer, 1 μL of gradient-diluted compound, and 50 μL of 6 μM [^14C]-isotope-labeled glucose solution at 37° C. for 2 hours.
The liquid in the wells was aspirated and the cells were washed 3 times with termination buffer.
The cells were lysed with 50 μL of 10% sodium hydroxide solution, and the cell lysate was aspirated into a scintillation tube, and 2 mL of scintillation solution was added.
Readings were taken with an isotope detector (Tricarb).
The data were calculated by GraphPad Prism 5.0 software using the formula: log (inhibitor) vs. response—Variable slope to obtain the IC50 values of the tested compounds, and the experimental results are shown in Table 5.

Data set [2] can be described thus: In vivo DMPK study in mice. The conditions noted are these: male C57 mice; for Oral DNAUC (AUCPO/Dose): 10 mg/kg oral; for bioavailability / Cmax / clearance / half-life / Vd: mouse, plasma; for bioavailability: 1 mg/kg intravenous and 10 mg/kg oral, read-out: F % (oral bioavailability); for Cmax / clearance / half-life / Vd: single dose, 1 mg/kg intravenous or 10 mg/kg oral; for clearance: read-out: Cl (clearance rate); for half-life: read-out: T1/2 (half-life) (converted); for Vd: read-out: Vdss (volume of distribution). An excerpt: Experimental purpose: Male C57 mice were used as test animals to determine blood concentrations of compounds and assess pharmacokinetic behavior after a single dose.
Experimental procedure: Six healthy adult male C57 mice were selected, three of them for the intravenous injection group and three of them for the oral group. The compounds to be tested were mixed with an appropriate amount of intravenous injection group solvent (20% polyethylene glycol-400 (PEG400)/10% polyethylene glycol-15 hydroxystearate (solutol)/70% H2O), the mixture was vortexed and sonicated to obtain 1 mg/mL clarified solution, then the clarified solution was filtered through a microporous membrane and prepared for use; solvent for the oral group was 20% polyethylene glycol-400 (PEG400)/10% polyethylene glycol-15 hydroxystearate (solutol)/70% H2O, and the compounds to be tested were mixed with the solvent, then the mixture was vortexed and sonicated to obtain 1 mg/mL clarified solution. After 1 mg/kg intravenous administration or 10 mg/kg oral administration in mice, whole blood was collected for a certain period of time, then the plasma was prepared to obtain, and the drug concentration was analyzed by LC-MS/MS method, then the pharmacokinetic parameters were calculated using Phoenix WinNonlin software (Pharsight, USA).

Chain of recombinant human dipeptidyl peptidase 4 (rhDPP4) (P27487 whole entry): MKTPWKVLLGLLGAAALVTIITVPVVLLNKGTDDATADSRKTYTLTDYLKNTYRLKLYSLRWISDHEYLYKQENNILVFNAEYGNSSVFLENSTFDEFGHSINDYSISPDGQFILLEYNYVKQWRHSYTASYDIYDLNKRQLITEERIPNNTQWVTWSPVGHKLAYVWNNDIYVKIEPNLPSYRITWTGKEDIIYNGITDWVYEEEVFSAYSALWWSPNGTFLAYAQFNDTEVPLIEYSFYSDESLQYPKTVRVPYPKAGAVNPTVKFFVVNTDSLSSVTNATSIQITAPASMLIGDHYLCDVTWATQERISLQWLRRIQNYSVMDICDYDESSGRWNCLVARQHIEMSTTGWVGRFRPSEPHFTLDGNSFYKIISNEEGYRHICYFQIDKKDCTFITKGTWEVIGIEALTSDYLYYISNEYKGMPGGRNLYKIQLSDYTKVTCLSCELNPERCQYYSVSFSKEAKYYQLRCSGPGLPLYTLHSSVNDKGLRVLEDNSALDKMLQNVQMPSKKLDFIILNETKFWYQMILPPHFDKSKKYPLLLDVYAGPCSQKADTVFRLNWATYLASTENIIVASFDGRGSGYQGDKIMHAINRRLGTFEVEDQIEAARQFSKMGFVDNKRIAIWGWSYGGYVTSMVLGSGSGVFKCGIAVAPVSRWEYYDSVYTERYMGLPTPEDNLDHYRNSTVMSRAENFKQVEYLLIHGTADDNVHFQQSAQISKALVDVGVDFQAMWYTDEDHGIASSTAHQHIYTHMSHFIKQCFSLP

The term IC50 denotes the concentration at which inhibition is half-maximal. As usually defined, the bioavailability is the share of a dose that reaches the circulation, judged against a reference dose that is usually intravenous. Usually Cmax stands for the peak of the concentration-time curve. For `CS[C@H]1O[C@@H](c2ccc(F)c(Cc3ccc(O[C@@H]4CCN([C@H]5CO[C@H](c6cc(F)ccc6F)[C@@H](N)C5)C4)cc3)c2)[C@H](O)[C@@H](O)[C@@H]1O` [WX001], in data set [1], the IC50 worked out at 31 nM. The IC50 against Human-SGLT2 was 21.8 nM. For the same compound, in data set [2], the “Oral DNAUC (AUCPO/Dose)” value worked out at 194.8 nM · h/mpk, the bioavailability was 21.4%, the peak level (Cmax) was 308 nM and the clearance was found to be 31.4 mL/min/kg. Further, in data set [2], the half-life is 7.39 h and the Vd came to 12.2 L/kg.

Turning to `CS[C@H]1O[C@@H](c2cc(Cc3ccc(O[C@@H]4CCN([C@H]5CO[C@H](c6cc(F)ccc6F)[C@@H](N)C5)C4)cc3)c(F)cc2F)[C@H](O)[C@@H](O)[C@@H]1O` [WX006], the IC50 in data set [1] stood at 26.9 nM. For the same compound, the concentration for half-maximal inhibition (IC50) against Human-SGLT2 was 7.02 nM. Further, in data set [2], the “Oral DNAUC (AUCPO/Dose)” value was determined as 151.3 nM · h/mpk, the bioavailability was found to be 18.7%, the highest level (Cmax) was 250 nM and the clearance was determined as 29.1 mL/min/kg. Further, in data set [2], the half-life was 10.5 h and the Vd was found to be 12 L/kg.
